Source: patent publication US20060293307A1, “Oxazolidinone derivatives as antimicrobials” (priority 2002, published 2006)

What was measured:
[1] = test system: M. tuberculosis 35801; assay: MIC against M. tuberculosis strains, agar dilution; type: cell-based, Mycobacterium tuberculosis; settings: S. No. 02 Mt-, Middle Brook 7H10 + OADC, 37° C., 14-21 days
[2] = test system: M. tuberculosis H37Rv; assay: MIC against M. tuberculosis strains, agar dilution; type: cell-based, Mycobacterium tuberculosis; settings: S. No. 04 Mt-, Middle Brook 7H10 + OADC, 37° C., 14-21 days
[3] = test system: M. tuberculosis SGPGI; assay: MIC against M. tuberculosis strains, agar dilution; type: cell-based, Mycobacterium tuberculosis; settings: S. No. 05 Mt-, Middle Brook 7H10 + OADC, 37° C., 14-21 days
[4] = test system: M. tuberculosis SGPGI; assay: MIC against M. tuberculosis strains, agar dilution; type: cell-based, Mycobacterium tuberculosis; settings: S. No. 07 Mt-, Middle Brook 7H10 + OADC, 37° C., 14-21 days
[5] = test system: M. tuberculosis M-66; assay: MIC against M. tuberculosis strains, agar dilution; type: cell-based, Mycobacterium tuberculosis; settings: S. No. 08 Mt-, Middle Brook 7H10 + OADC, 37° C., 14-21 days
[6] = test system: M. tuberculosis M-164; assay: MIC against M. tuberculosis strains, agar dilution; type: cell-based, Mycobacterium tuberculosis; settings: S. No. 10 Mt-, Middle Brook 7H10 + OADC, 37° C., 14-21 days
[7] = test system: M. tuberculosis V-591; assay: MIC against M. tuberculosis strains, agar dilution; type: cell-based, Mycobacterium tuberculosis; settings: S. No. 13 Mt-, Middle Brook 7H10 + OADC, 37° C., 14-21 days
[8] = test system: M. tuberculosis PC; assay: MIC against M. tuberculosis strains, agar dilution; type: cell-based, Mycobacterium tuberculosis; settings: S. No. 16 Mt-, Middle Brook 7H10 + OADC, 37° C., 14-21 days
[9] = test system: M. tuberculosis PC; assay: MIC against M. tuberculosis strains, agar dilution; type: cell-based, Mycobacterium tuberculosis; settings: S. No. 17 Mt-, Middle Brook 7H10 + OADC, 37° C., 14-21 days
[10] = test system: M. tuberculosis PC; assay: MIC against M. tuberculosis strains, agar dilution; type: cell-based, Mycobacterium tuberculosis; settings: S. No. 19 Mt-, Middle Brook 7H10 + OADC, 37° C., 14-21 days
[11] = test system: M. tuberculosis PC; assay: MIC against M. tuberculosis strains, agar dilution; type: cell-based, Mycobacterium tuberculosis; settings: S. No. 20 Mt-, Middle Brook 7H10 + OADC, 37° C., 14-21 days
[12] = test system: M. tuberculosis PC 4782; assay: MIC against M. tuberculosis strains, agar dilution; type: cell-based, Mycobacterium tuberculosis; settings: S. No. 21 Mt-, Middle Brook 7H10 + OADC, 37° C., 14-21 days
[13] = test system: M. tuberculosis PC; assay: MIC against M. tuberculosis strains, agar dilution; type: cell-based, Mycobacterium tuberculosis; settings: S. No. 22 Mt-, Middle Brook 7H10 + OADC, 37° C., 14-21 days
[14] = test system: M avium ATCC 25291; assay: MIC against MAC strains, agar dilution; type: cell-based, Mycobacterium avium; settings: S. No. 02 Ma-2, M avium ATCC 25291; Middle Brook 7H10 + OADC, 37° C., 14-21 days
[15] = test system: M. avium ATCC 1723; assay: MIC against MAC strains, agar dilution; type: cell-based, Mycobacterium avium; settings: S. No. 03 Ma-3, M. avium ATCC 1723; Middle Brook 7H10 + OADC, 37° C., 14-21 days
[16] = test system: M. avium intracellulare 540/96; assay: MIC against MAC strains, agar dilution; type: cell-based; settings: S. No. 12 Mai-4, M. avium intracellulare 540/96; Middle Brook 7H10 + OADC, 37° C., 14-21 days
[17] = test system: M. avium intracellulare 926/98; assay: MIC against MAC strains, agar dilution; type: cell-based; settings: S. No. 14 Mai-6, M. avium intracellulare 926/98; Middle Brook 7H10 + OADC, 37° C., 14-21 days
[18] = test system: M. avium intracellulare 559/97; assay: MIC against MAC strains, agar dilution; type: cell-based; settings: S. No. 15 Mai-7, M. avium intracellulare 559/97; Middle Brook 7H10 + OADC, 37° C., 14-21 days

| Structure (SMILES) | MIC [1] | MIC [2] | MIC [3] [µg/mL] | MIC [4] [µg/mL] | MIC [5] [µg/mL] | MIC [6] [µg/mL] | MIC [7] [µg/mL] | MIC [8] [µg/mL] | MIC [9] [µg/mL] | MIC [10] | MIC [11] [µg/mL] | MIC [12] | MIC [13] [µg/mL] | MIC [14] [µg/mL] | MIC [15] [µg/mL] | MIC [16] [µg/mL] | MIC [17] [µg/mL] | MIC [18] [µg/mL] |
| --- | --- | --- | --- | --- | --- | --- | --- | --- | --- | --- | --- | --- | --- | --- | --- | --- | --- | --- |
| CC[C@H]1OC(=O)[C@H](C)[C@@H](O[C@H]2C[C@@](C)(OC)[C@@H](O)[C@H](C)O2)[C@H](C)[C@@H](O[C@@H]2O[C@H](C)C[C@H](N(C)C)[C@H]2O)[C@](C)(OC)C[C@@H](C)C(=O)[C@H](C)[C@@H](O)[C@]1(C)O [CLA] | >32 µg/mL | 32 µg/mL | 8.0 | 16 | 16 | 16 | 32 | 8.0 | 4.0 | 8.0 µg/mL | 4.0 | 16 µg/mL | 8.0 | 8.0 | 1.0 | >32 | 1.0 | 32 |
| C[C@@H]1CN(c2c(F)c(N)c3c(=O)c(C(=O)O)cn(C4CC4)c3c2F)C[C@H](C)N1 [SPAR] | ≦0.125 μg/ml | ≦0.125 μg/ml | 0.25 | 4.0 | 32 | 1.0 | 2.0 | 2.0 | 8.0 | ≦0.125 μg/ml | 8.0 | ≦0.125 μg/ml | 4.0 | 32 | 4.0 | 4.0 | 2.0 | 2.0 |
| CCc1cc(C(N)=S)ccn1 [ETH] | 2.0 µg/mL | ≦0.125 μg/ml | 4.0 | >32 | >32 | >32 | >32 | 32 | 32 | 1.0 µg/mL | 16 | 1.0 µg/mL | >32 | 32 | 16 | 32 | 16 | >32 |
| CO[C@H]1/C=C/O[C@@]2(C)Oc3c(C)c(O)c4c(O)c(c(/C=N/N5CCN(C)CC5)c(O)c4c3C2=O)NC(=O)/C(C)=C\C=C\[C@H](C)[C@H](O)[C@@H](C)[C@@H](O)[C@@H](C)[C@H](OC(C)=O)[C@@H]1C [RIF] | 0.5 µg/mL | 0.25 µg/mL | 16 | >32 | >32 | >32 | >32 | 4.0 | 2.0 | 0.06 µg/mL | 2.0 | 0.06 µg/mL | 2.0 | >32 | 1.0 | >32 | 0.25 | >32 |
| NNC(=O)c1ccncc1 [INH] | 0.06 µg/mL | 0.125 µg/mL | 1.0 | >32 | >32 | >32 | >32 | 8.0 | 32 | 0.25 µg/mL | 16 | 0.25 µg/mL | >32 | >32 | 32 | 4.0 | 4.0 | >32 |
